Source: patent US5424312A, “Aminoalkyl-substituted 2-amino-1,3,4-thiadiazoles, the preparation and use thereof” (BASF Aktiengesellschaft, priority 1991, dated 1995)
Structures can show the parent of a compound that is named as a salt.

target: T1, dopamine D2 receptor (Rattus norvegicus, UniProt P61169); assay: Receptor binding assay with 3H-ADTN on rat striatal membranes: affinity for the dopamine D2 receptor; design: species or system rat (Sprague Dawley); settings: not given
T1 construct: Striata from rats (Sprague Dawley, Charles River) were homogenized immediately after removal; from tissue; host or cells: rat striatum (Sprague Dawley, Charles River), membranes
Procedure: The effects of the novel compounds can be shown in the receptor binding assay as follows:
Striata from rats (Sprague Dawley, Charles River) were homogenized immediately after removal in 0.32M sucrose solution (0° C.). The homogenate was filtered through gauze, the filtrate was centrifuged at 1000×g (5 min at 4° C.) and the resulting supernatant was centrifuged at 40000×g (4C 10 min) The residue (membranes) was taken up in incubation buffer (50 mM tris-HCl, 1 mM MgCl2 and 0.1% ascorbic acid, pH 7.4) and incubated at 37° C. for 20 min. The residue was subsequently washed 2× with incubation buffer by resuspension and recentrifugation. The membranes were frozen in portions in liquid nitrogen.
The assay mixtures (1 ml) were composed of membranes (380 μg of protein), 1 nM ^3 H-ADTN (NEN, Dreieich Germany, specific radioactivity 1.4 TBq/mmol) and 0.1 μM SCH 23390 (total binding) or a) with the addition of 50 nM spiperone (non-specific binding) or b) with test substance. The mixtures were prepared in triplicate.
After the incubation (40 min at 25° C.) the mixtures were filtered through glass fiber filters (Whatman GF/B) and briefly washed with ice-cold washing buffer (tris-HCl, pH 7.4). The radioactivity retained on the filters was determined by liquid scintillation counting. The non-specific binding comprised about 40-50% of the total binding.
The evaluation of the competition plots and the determination of the dissociation constant took place by iterative non-linear regression analysis based on the "ligand" program (Muson and Rodbard: Anal. Biochem. 107 (1980) 220).
Affinity of the test substances for the dopamine D2 receptor

T1 sequence (P61169 whole entry): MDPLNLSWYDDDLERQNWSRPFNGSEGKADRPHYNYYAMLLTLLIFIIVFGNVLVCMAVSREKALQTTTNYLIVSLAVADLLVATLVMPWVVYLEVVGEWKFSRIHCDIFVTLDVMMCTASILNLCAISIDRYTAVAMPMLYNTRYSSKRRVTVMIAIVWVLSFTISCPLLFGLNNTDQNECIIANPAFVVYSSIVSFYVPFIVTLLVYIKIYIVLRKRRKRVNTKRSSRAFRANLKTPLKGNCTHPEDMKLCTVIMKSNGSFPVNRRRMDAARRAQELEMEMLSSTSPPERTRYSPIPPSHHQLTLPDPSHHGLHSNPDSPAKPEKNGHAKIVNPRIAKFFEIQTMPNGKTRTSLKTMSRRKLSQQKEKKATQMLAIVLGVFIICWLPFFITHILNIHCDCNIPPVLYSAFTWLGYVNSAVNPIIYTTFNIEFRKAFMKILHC

Row | SMILES | Ki [nM]
1 | Nc1nnc(CCCCN2CC=C(c3ccccc3)CC2)s1 [Example 18, 2-Amino-5-[4-(1,2,3,6-tetrahydro-4-phenylpyridinyl)-butyl]-1,3,4-thiadiazole] | 5
2 | Nc1nnc(CCCCCN2CC=C(c3ccccc3)CC2)s1 [Example 19, fumarate] | 10

same assay, conditions: rat striatum membranes; 1 nM 3H-ADTN; 0.1 μM SCH 23390; non-specific binding with 50 nM spiperone; 40 min at 25° C.; read-out: Affinity of the test substances for the dopamine D2 receptor, Ki

Row | SMILES | Ki [nM]
3 | Nc1nnc(CCCCN2CCN(c3ccccn3)CC2)s1 [Example 21, 2-Amino-5-[4-(4-pyridin-2-ylpiperazinyl)butyl]-1,3,4-thiadiazole] | 44
4 | Nc1nnc(CCCN2CC=C(c3ccccc3)CC2)s1 [Example 10, 2-Amino-5-[3-(1,2,3,6-tetrahydro-4-phenylpyridyl)propyl]-1,3,4-thiadiazolehydrochloride] | 32
5 | Nc1nnc(CCN2CCC(c3ccccc3)CC2)s1 [Example 24, 2-Amino-5-[2-(4-phenylpiperidinyl)ethyl]-1,3,4-thiadiazole] | 37
6 | Nc1nnc(CCN2CC=C(c3ccc(Cl)cc3)CC2)s1 [Example 7, 2-Amino-5-[2-(4-(4-chlorophenyl)-l,2,3,6-tetrahydropyridyl)ethyl]-1,3,4-thiadiazole dihydrochloride] | 30
7 | Nc1nnc(CCN2CC=C(c3ccccc3)CC2)s1 [Example 4, 2-Amino-5-[2-(1,2,3,6-tetrahydro-4-phenylpyridyl)-ethyl]-1,3,4-thiadiazolehydrochloride] | 30
